Reference: the kinase profiling compilation of Christmann-Franck et al. (2016)

Experiments:
Assay in all cases: KINOMEscan competition binding
Settings in all cases: compound 10.0 µM
ADCK4 (human) = ADCK4 (human) (UniProt Q96D53)
AURKA (human) = AURKA (human) (UniProt O14965)
CAMK2D (human) = CAMK2D (human) (UniProt Q13557)
CAMK4 (human) = CAMK4 (human) (UniProt Q16566)
CHEK1 (human) = CHEK1 (human) (UniProt O14757)
CHUK (human) = CHUK (human) (UniProt O15111)
CSNK1A1L (human) = CSNK1A1L (human) (UniProt Q8N752)
DCLK3 (human) = DCLK3 (human) (UniProt Q9C098)
EPHA1 (human) = EPHA1 (human) (UniProt P21709)
FLT4 (human) = FLT4 (human) (UniProt P35916)
HCK (human) = HCK (human) (UniProt P08631)
IGF1R (human) = IGF1R (human) (UniProt P08069)
INSRR (human) = INSRR (human) (UniProt P14616)
LTK (human) = LTK (human) (UniProt P29376)
MAP4K4 (human) = MAP4K4 (human) (UniProt O95819)
MAPK1 (human) = MAPK1 (human) (UniProt P28482)
MAPK10 (human) = MAPK10 (human) (UniProt P53779)
MAPK11 (human) = MAPK11 (human) (UniProt Q15759)
MAPK12 (human) = MAPK12 (human) (UniProt P53778)
MAPK8 (human) = MAPK8 (human) (UniProt P45983)
MINK1 (human) = MINK1 (human) (UniProt Q8N4C8)
MLTK (human) = MLTK (human) (UniProt Q9NYL2)
MST1R (human) = MST1R (human) (UniProt Q04912)
MYLK2 (human) = MYLK2 (human) (UniProt Q9H1R3)
PAK3 (human) = PAK3 (human) (UniProt O75914)
PAK7 (human) = PAK7 (human) (UniProt Q9P286)
PHKG2 (human) = PHKG2 (human) (UniProt P15735)
PIM3 (human) = PIM3 (human) (UniProt Q86V86)
PRKAA1 (human) = PRKAA1 (human) (UniProt Q13131)
PTK2B (human) = PTK2B (human) (UniProt Q14289)
PTK6 (human) = PTK6 (human) (UniProt Q13882)
SRMS (human) = SRMS (human) (UniProt Q9H3Y6)
SRPK2 (human) = SRPK2 (human) (UniProt P78362)
STK17B (human) = STK17B (human) (UniProt O94768)
STK32C (human) = STK32C (human) (UniProt Q86UX6)
TAOK1 (human) = TAOK1 (human) (UniProt Q7L7X3)
TNIK (human) = TNIK (human) (UniProt Q9UKE5)
TNK2 (human) = TNK2 (human) (UniProt Q07912)
CDC2L2 (human) = CDC2L2 (human) (UniProt Q9UQ88)
ZAP70 (human) = ZAP70 (human) (UniProt P43403)

Chain of MST1R (human) (Q04912 whole entry, looked up): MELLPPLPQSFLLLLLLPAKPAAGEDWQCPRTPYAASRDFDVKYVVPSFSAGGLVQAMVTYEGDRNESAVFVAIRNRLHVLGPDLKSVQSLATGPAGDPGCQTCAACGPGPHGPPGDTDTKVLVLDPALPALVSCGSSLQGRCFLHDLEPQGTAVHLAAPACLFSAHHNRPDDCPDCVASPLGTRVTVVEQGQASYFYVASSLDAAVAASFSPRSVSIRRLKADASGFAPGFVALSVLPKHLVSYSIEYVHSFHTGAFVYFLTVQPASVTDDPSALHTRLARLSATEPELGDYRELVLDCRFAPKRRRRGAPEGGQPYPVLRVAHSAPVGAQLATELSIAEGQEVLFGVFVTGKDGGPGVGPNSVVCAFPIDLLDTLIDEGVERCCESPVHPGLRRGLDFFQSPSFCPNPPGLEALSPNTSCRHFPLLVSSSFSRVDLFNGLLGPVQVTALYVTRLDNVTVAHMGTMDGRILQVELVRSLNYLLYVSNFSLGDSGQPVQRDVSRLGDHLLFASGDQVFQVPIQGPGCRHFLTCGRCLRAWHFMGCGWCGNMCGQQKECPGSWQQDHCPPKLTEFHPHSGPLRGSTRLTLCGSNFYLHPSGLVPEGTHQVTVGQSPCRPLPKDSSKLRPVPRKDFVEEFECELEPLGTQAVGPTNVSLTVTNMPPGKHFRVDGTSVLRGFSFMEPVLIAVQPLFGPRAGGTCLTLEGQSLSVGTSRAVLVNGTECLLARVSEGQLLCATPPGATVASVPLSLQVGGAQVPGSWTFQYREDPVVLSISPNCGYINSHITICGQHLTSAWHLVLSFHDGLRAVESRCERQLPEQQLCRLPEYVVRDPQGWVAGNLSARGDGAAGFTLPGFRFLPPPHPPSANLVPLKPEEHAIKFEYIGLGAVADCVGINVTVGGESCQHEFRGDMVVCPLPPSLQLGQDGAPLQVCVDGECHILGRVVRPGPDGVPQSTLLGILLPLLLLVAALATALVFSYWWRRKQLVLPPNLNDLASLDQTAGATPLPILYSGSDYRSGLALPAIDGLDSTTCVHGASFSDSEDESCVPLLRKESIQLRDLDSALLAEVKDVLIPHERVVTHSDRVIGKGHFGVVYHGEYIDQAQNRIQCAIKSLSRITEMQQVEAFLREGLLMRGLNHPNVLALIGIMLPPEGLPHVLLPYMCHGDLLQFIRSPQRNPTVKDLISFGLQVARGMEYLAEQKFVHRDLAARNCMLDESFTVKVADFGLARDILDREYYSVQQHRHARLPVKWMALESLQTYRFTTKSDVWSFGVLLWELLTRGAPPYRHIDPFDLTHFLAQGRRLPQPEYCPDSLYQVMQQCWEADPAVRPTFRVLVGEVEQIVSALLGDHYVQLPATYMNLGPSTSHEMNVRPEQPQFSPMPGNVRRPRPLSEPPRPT
Chain of MAP4K4 (human) (O95819 whole entry, looked up): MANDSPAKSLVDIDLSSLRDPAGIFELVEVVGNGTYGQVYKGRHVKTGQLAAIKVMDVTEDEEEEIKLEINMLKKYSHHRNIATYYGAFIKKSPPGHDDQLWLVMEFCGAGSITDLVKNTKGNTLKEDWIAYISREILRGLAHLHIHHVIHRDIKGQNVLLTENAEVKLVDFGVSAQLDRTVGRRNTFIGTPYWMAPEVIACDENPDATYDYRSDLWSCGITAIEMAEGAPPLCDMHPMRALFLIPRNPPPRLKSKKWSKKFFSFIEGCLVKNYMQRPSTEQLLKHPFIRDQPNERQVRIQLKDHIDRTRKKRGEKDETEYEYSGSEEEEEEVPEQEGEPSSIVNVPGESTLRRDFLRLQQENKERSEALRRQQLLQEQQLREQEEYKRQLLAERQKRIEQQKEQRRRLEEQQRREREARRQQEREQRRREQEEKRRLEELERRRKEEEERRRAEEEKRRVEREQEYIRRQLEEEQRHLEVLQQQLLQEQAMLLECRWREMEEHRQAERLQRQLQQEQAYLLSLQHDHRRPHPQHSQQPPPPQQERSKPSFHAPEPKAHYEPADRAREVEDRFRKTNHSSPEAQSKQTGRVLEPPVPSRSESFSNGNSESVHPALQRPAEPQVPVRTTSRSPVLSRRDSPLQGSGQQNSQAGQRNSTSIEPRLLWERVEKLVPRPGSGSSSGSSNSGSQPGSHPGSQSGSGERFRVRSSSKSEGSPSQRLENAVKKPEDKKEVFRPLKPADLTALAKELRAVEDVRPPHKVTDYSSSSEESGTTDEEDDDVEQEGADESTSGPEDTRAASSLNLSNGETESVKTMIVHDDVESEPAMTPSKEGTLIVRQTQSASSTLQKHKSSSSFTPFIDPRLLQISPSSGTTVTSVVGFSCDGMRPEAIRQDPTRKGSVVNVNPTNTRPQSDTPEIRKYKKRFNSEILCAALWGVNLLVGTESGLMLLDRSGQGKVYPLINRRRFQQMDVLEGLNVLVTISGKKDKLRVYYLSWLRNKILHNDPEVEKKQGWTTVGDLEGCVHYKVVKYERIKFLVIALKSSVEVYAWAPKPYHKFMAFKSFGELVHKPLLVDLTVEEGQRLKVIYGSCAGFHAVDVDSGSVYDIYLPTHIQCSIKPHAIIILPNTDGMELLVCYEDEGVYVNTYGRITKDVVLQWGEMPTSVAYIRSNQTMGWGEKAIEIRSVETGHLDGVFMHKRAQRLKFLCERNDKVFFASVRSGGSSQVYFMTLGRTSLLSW
Chain of STK32C (human) (Q86UX6 whole entry, looked up): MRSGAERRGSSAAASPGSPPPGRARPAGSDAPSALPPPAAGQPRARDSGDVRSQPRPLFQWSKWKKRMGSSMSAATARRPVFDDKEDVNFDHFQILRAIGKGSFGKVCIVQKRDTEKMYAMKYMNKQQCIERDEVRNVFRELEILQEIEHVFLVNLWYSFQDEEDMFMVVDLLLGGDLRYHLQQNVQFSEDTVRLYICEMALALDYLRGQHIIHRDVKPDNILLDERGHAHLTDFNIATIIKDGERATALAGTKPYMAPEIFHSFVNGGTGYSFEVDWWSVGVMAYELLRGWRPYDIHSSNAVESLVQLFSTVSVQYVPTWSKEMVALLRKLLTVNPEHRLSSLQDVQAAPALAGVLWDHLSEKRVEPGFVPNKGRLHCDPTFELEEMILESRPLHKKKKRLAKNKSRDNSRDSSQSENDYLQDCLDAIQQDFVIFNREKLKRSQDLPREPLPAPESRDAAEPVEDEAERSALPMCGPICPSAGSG
Chain of CDC2L2 (human) (Q9UQ88 whole entry, looked up): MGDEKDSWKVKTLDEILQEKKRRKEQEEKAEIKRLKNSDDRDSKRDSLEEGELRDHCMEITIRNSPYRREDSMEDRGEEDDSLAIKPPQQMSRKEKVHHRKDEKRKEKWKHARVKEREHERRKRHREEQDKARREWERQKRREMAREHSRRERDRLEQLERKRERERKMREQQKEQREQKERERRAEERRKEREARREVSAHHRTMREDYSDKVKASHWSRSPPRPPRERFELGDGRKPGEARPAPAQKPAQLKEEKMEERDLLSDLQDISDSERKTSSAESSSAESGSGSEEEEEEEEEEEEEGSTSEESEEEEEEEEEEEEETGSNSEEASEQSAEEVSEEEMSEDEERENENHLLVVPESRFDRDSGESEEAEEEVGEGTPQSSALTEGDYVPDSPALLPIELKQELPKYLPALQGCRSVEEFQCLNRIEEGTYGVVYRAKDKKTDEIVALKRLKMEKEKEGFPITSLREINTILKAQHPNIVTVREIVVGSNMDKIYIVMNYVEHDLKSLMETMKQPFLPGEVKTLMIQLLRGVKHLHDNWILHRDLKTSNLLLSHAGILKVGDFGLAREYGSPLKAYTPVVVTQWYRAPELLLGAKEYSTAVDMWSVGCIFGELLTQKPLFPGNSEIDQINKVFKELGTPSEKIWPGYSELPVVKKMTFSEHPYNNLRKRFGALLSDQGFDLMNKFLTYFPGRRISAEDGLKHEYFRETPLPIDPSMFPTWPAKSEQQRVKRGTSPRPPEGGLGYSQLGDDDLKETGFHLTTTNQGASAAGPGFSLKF
Chain of CHUK (human) (O15111 whole entry, looked up): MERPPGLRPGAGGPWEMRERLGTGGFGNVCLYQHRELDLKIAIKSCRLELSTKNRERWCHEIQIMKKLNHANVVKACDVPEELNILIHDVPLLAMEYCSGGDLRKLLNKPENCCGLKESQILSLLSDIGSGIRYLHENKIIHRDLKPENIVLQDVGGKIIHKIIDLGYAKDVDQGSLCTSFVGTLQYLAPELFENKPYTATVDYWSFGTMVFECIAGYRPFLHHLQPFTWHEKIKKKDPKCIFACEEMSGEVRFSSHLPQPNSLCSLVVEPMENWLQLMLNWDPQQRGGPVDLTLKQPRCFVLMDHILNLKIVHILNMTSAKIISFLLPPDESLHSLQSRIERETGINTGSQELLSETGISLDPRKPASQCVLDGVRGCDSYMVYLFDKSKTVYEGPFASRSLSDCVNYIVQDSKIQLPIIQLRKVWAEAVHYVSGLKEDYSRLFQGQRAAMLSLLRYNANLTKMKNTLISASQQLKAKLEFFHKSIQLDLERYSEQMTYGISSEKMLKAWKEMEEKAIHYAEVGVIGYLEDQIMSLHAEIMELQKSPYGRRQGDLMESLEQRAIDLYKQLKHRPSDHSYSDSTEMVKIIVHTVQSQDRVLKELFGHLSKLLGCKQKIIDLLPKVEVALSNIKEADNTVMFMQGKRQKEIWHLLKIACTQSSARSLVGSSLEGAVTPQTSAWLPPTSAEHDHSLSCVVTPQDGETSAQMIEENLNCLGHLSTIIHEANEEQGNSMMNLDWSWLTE
Chain of PTK6 (human) (Q13882 whole entry, looked up): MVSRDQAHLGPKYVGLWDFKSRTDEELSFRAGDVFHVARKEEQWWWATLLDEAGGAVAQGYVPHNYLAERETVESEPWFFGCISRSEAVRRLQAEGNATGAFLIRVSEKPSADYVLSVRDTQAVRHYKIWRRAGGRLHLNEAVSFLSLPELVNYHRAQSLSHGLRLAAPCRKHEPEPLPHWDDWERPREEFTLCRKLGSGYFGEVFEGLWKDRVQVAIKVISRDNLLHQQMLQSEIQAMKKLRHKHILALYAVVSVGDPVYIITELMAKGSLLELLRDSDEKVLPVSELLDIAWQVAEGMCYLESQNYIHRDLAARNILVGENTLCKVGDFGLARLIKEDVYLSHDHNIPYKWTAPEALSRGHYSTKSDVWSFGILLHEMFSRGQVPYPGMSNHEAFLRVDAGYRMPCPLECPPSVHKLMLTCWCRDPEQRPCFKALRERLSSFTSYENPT

SMILES	kinase still bound, per cent of control (ADCK4 (human)) [%]	kinase still bound, per cent of control (AURKA (human)) [%]	kinase still bound, per cent of control (CAMK2D (human)) [%]	kinase still bound, per cent of control (CAMK4 (human)) [%]	kinase still bound, per cent of control (CHUK (human)) [%]	kinase still bound, per cent of control (CSNK1A1L (human)) [%]	kinase still bound, per cent of control (DCLK3 (human)) [%]	kinase still bound, per cent of control (EPHA1 (human)) [%]	kinase still bound, per cent of control (FLT4 (human)) [%]	kinase still bound, per cent of control (HCK (human)) [%]	kinase still bound, per cent of control (IGF1R (human)) [%]	kinase still bound, per cent of control (INSRR (human)) [%]	kinase still bound, per cent of control (LTK (human)) [%]	kinase still bound, per cent of control (MAP4K4 (human)) [%]	kinase still bound, per cent of control (MAPK1 (human)) [%]	kinase still bound, per cent of control (MAPK10 (human)) [%]	kinase still bound, per cent of control (MAPK11 (human)) [%]	kinase still bound, per cent of control (MAPK12 (human)) [%]	kinase still bound, per cent of control (MAPK8 (human)) [%]	kinase still bound, per cent of control (MINK1 (human)) [%]	other results
COc1cc(N2CCN(C)CC2)ccc1Nc1nc(N)c(C(=O)c2c(Cl)cccc2Cl)s1	81	100	23	99	58	100	14	100	100	100	72	100	4.2	76	100	100	77	100	81	61	kinase still bound, per cent of control (CHEK1 (human)): 79%; kinase still bound, per cent of control (MLTK (human)): 100%; kinase still bound, per cent of control (MST1R (human)): 96%; kinase still bound, per cent of control (MYLK2 (human)): 87%; kinase still bound, per cent of control (PAK3 (human)): 94%; kinase still bound, per cent of control (PAK7 (human)): 63%; kinase still bound, per cent of control (PHKG2 (human)): 43%; kinase still bound, per cent of control (PIM3 (human)): 100%; kinase still bound, per cent of control (PRKAA1 (human)): 81%; kinase still bound, per cent of control (PTK2B (human)): 42%; kinase still bound, per cent of control (PTK6 (human)): 100%; kinase still bound, per cent of control (SRMS (human)): 71%; kinase still bound, per cent of control (SRPK2 (human)): 100%; kinase still bound, per cent of control (STK17B (human)): 73%; kinase still bound, per cent of control (STK32C (human)): 99%; kinase still bound, per cent of control (TAOK1 (human)): 52%; kinase still bound, per cent of control (TNIK (human)): 69%; kinase still bound, per cent of control (TNK2 (human)): 97%
CCCS(=O)(=O)Nc1ccc(F)c(C(=O)c2c[nH]c3ncc(-c4ccc(Cl)cc4)cc23)c1F	100	81	100	100	87	100	47	82	82	13	93	73	100	48	100	91	29	93	18	38	kinase still bound, per cent of control (CDC2L2 (human)): 91%; kinase still bound, per cent of control (MLTK (human)): 7.4%; kinase still bound, per cent of control (MST1R (human)): 100%; kinase still bound, per cent of control (MYLK2 (human)): 18%; kinase still bound, per cent of control (PAK3 (human)): 69%; kinase still bound, per cent of control (PAK7 (human)): 78%; kinase still bound, per cent of control (PHKG2 (human)): 100%; kinase still bound, per cent of control (PIM3 (human)): 100%; kinase still bound, per cent of control (PRKAA1 (human)): 89%; kinase still bound, per cent of control (PTK2B (human)): 100%; kinase still bound, per cent of control (PTK6 (human)): 0.75%; kinase still bound, per cent of control (SRMS (human)): 0.05%; kinase still bound, per cent of control (SRPK2 (human)): 100%; kinase still bound, per cent of control (STK17B (human)): 88%; kinase still bound, per cent of control (STK32C (human)): 100%; kinase still bound, per cent of control (TAOK1 (human)): 72%; kinase still bound, per cent of control (TNIK (human)): 15%; kinase still bound, per cent of control (TNK2 (human)): 6.9%; kinase still bound, per cent of control (ZAP70 (human)): 90%
CCC(=O)N1CCN(c2ccc(-n3c(=O)ccc4cnc5ccc(-c6cnc7ccccc7c6)cc5c43)cc2C(F)(F)F)CC1	15	100	72	90	41	81	97	62	74	77	94	100	77	5.2	100	31	53	71	22	19	kinase still bound, per cent of control (CDC2L2 (human)): 100%; kinase still bound, per cent of control (MLTK (human)): 22%; kinase still bound, per cent of control (MST1R (human)): 55%; kinase still bound, per cent of control (MYLK2 (human)): 40%; kinase still bound, per cent of control (PAK3 (human)): 100%; kinase still bound, per cent of control (PAK7 (human)): 87%; kinase still bound, per cent of control (PHKG2 (human)): 100%; kinase still bound, per cent of control (PIM3 (human)): 96%; kinase still bound, per cent of control (PRKAA1 (human)): 91%; kinase still bound, per cent of control (PTK2B (human)): 100%; kinase still bound, per cent of control (PTK6 (human)): 51%; kinase still bound, per cent of control (SRMS (human)): 92%; kinase still bound, per cent of control (SRPK2 (human)): 100%; kinase still bound, per cent of control (STK17B (human)): 67%; kinase still bound, per cent of control (STK32C (human)): 100%; kinase still bound, per cent of control (TAOK1 (human)): 58%; kinase still bound, per cent of control (TNIK (human)): 39%; kinase still bound, per cent of control (TNK2 (human)): 51%; kinase still bound, per cent of control (ZAP70 (human)): 100%
OCCCNc1cc(-c2ccnc(Nc3cccc(Cl)c3)n2)ccn1	100	100	100	100	100	100	100	100	100	100	100	100	100	100	100	100	100	100	100	100	kinase still bound, per cent of control (CDC2L2 (human)): 100%; kinase still bound, per cent of control (CHEK1 (human)): 100%; kinase still bound, per cent of control (MLTK (human)): 100%; kinase still bound, per cent of control (MST1R (human)): 100%; kinase still bound, per cent of control (MYLK2 (human)): 100%; kinase still bound, per cent of control (PAK3 (human)): 100%; kinase still bound, per cent of control (PAK7 (human)): 100%; kinase still bound, per cent of control (PHKG2 (human)): 100%; kinase still bound, per cent of control (PIM3 (human)): 100%; kinase still bound, per cent of control (PRKAA1 (human)): 100%; kinase still bound, per cent of control (PTK2B (human)): 100%; kinase still bound, per cent of control (PTK6 (human)): 100%; kinase still bound, per cent of control (SRMS (human)): 100%; kinase still bound, per cent of control (SRPK2 (human)): 100%; kinase still bound, per cent of control (STK17B (human)): 100%; kinase still bound, per cent of control (STK32C (human)): 100%; kinase still bound, per cent of control (TNIK (human)): 100%; kinase still bound, per cent of control (TNK2 (human)): 100%; kinase still bound, per cent of control (ZAP70 (human)): 100%
